This note sets out measurements from ChEMBL document CHEMBL1201862, “PubChem BioAssay data set” (2004).

Molecules are shown by their SMILES.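 Tested at 5 concentrations; 48 h exposure; 96-well plates; endpoints linearly interpolated, else capped at highest concentration. GI50 is the concentration that inhibits growth by half.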 Calls of active or inactive are those of the source. Rule as the data show it: active = GI50 up to about 1.1 µM and inactive = higher.

Test systems include U-251; NCI-H226; NCI-H460; SW-620; LXFL 529; RXF 393; HT-29; OVCAR-5; COLO 205; HCC 2998; 786-0; SNB-19; HOP-92; TK-10; OVCAR-8.
Holding throughout (assay): NCI anticancer screen, dose series, 48 h

For the compound `CCCCCCCCCCCCCCCCOC(=O)C(C(=O)OCCCCCCCCCCCCCCCC)[N+](C)(C)CCOC(C)=O`, the GI50 is 12 µM (inactive) in the assay on U-251; 18.7 µM (inactive) with NCI-H226; 28.1 µM (inactive) in the assay with NCI-H460; 20.6 µM (inactive) in the assay on SW-620; 16.1 µM (inactive) in the assay on LXFL 529; 2.99 µM (inactive) in the assay with RXF 393. Also, the GI50 is 11.1 µM (inactive) with HT-29; 20.8 µM (inactive) in the assay on OVCAR-5; 15.8 µM (inactive) with COLO 205; 11.4 µM (inactive) in the assay on HCC 2998; 14.3 µM (inactive) in the assay with 786-0; 13.4 µM (inactive) with SNB-19. In addition, the results for the GI50 with HOP-92, in the assay with TK-10 and with OVCAR-8 were 2.85 µM (inactive), 13 µM (inactive) and 17.7 µM (inactive), respectively.

As for `COc1ccc(NC(=O)CC/C(CC(=O)c2ccco2)=N/Nc2ccc([N+](=O)[O-])cc2[N+](=O)[O-])cc1`, the GI50 was > 100 µM (inactive) in the assay with U-251; > 100 µM (inactive) in the assay on NCI-H226; > 100 µM (inactive) with NCI-H460; 99.8 µM (inactive) with SW-620; 43.2 µM (inactive) in the assay with LXFL 529; 75.9 µM (inactive) in the assay on RXF 393. For the same compound, the GI50 in the assay on HT-29 is 48 µM (inactive); in the assay on OVCAR-5, > 100 µM (inactive); in the assay with COLO 205 it was > 100 µM (inactive); in the assay on HCC 2998, > 100 µM (inactive); with 786-0 it was > 100 µM (inactive); with SNB-19 it was > 100 µM (inactive). In addition, the GI50 with HOP-92 is 34.4 µM (inactive); in the assay on TK-10, > 100 µM (inactive); in the assay on OVCAR-8 it was > 100 µM (inactive).

Regarding `O=C(CCc1nnc2s/c(=C\c3ccccc3)c(=O)n12)Nc1cc(Cl)ccc1Cl`, the GI50 in the assay with U-251 was > 100 µM (inactive); in the assay with NCI-H226, > 100 µM (inactive); with NCI-H460 it was > 100 µM (inactive); in the assay on SW-620, 4.15 µM (inactive); in the assay on LXFL 529 it was > 100 µM (inactive); with RXF 393, > 100 µM (inactive). For the same compound, the GI50 in the assay with HT-29, in the assay with OVCAR-5, with COLO 205, in the assay on HCC 2998, in the assay on 786-0 and in the assay with SNB-19 was > 100 µM (inactive) each time. The GI50 in the assay with HOP-92, in the assay with TK-10 and in the assay on OVCAR-8 was > 100 µM (inactive) throughout.

`Cc1cc(Cl)cc2c1NC(=O)C2=O.O=C(c1ccccc1)C(F)(F)F`: the GI50 in the assay with U-251 was 85.9 µM (inactive); in the assay with NCI-H226 it was > 100 µM (inactive); in the assay with NCI-H460, 70.5 µM (inactive); with SW-620, 72.8 µM (inactive); with LXFL 529, 56.1 µM (inactive); in the assay with RXF 393, 73.3 µM (inactive). The GI50 was 78 µM (inactive) in the assay with HT-29; > 100 µM (inactive) with OVCAR-5; 57.7 µM (inactive) in the assay with COLO 205; > 100 µM (inactive) in the assay on HCC 2998; 70.1 µM (inactive) in the assay on 786-0; 72.4 µM (inactive) in the assay with SNB-19. For the same compound, the GI50 with HOP-92 was 52.6 µM (inactive); in the assay with TK-10, 57.5 µM (inactive); in the assay on OVCAR-8, 55.5 µM (inactive).

`CN(C)c1ccc(/C=c2\sc3nc4ccccc4n3c2=O)cc1`: the GI50 in the assay with U-251 was > 100 µM (inactive); with NCI-H226 it was > 100 µM (inactive); in the assay with NCI-H460, > 100 µM (inactive); in the assay with SW-620, > 100 µM (inactive); in the assay with LXFL 529, > 100 µM (inactive); in the assay on RXF 393, 77.6 µM (inactive). In addition, the GI50 in the assay with HT-29, in the assay with OVCAR-5, in the assay on COLO 205, in the assay with HCC 2998, with 786-0 and with SNB-19 was > 100 µM (inactive) in each case. The GI50 in the assay with HOP-92, in the assay on TK-10 and in the assay on OVCAR-8 was > 100 µM (inactive) throughout.

Take `Cn1c(=O)c(C(c2ccc([N+](=O)[O-])cc2)c2c(O)c3ccccc3n(C)c2=O)cc2ccccc21` (stereo not given): the GI50 in the assay on U-251 was 18.2 µM (inactive); in the assay with NCI-H226, 13.4 µM (inactive); in the assay with NCI-H460, > 100 µM (inactive); in the assay with SW-620, > 100 µM (inactive); in the assay on LXFL 529, 42.2 µM (inactive); in the assay with RXF 393, 26.4 µM (inactive). The GI50 in the assay on HT-29 is 44.8 µM (inactive); in the assay with OVCAR-5, 28.4 µM (inactive); in the assay with COLO 205, 32.7 µM (inactive); in the assay with HCC 2998, > 100 µM (inactive); in the assay on 786-0, 54.6 µM (inactive); in the assay with SNB-19, 40.3 µM (inactive). The results for the GI50 in the assay on HOP-92, with TK-10 and with OVCAR-8 were 53.1 µM (inactive), 29.9 µM (inactive) and > 100 µM (inactive), respectively.

As for `COC(=O)[C@@H]1C(=O)O[C@@H](c2ccc3c(c2)OCO3)[C@@H]1C(=O)OC.COC(=O)[C@H]1C(=O)O[C@@H](c2ccc3c(c2)OCO3)[C@@H]1C(=O)OC`, the GI50 in the assay with U-251, in the assay on NCI-H226, with NCI-H460, with SW-620, with LXFL 529 and with RXF 393 was > 100 µM (inactive) each time. The GI50 in the assay on HT-29, in the assay on OVCAR-5, with COLO 205, with HCC 2998, with 786-0 and in the assay with SNB-19 was > 100 µM (inactive) in each case. The GI50 in the assay on HOP-92 is 43.8 µM (inactive); in the assay with TK-10, > 100 µM (inactive); with OVCAR-8, > 100 µM (inactive).

`COc1cc(CC(=O)c2ccc3c(c2)OCO3)cc(OC)c1OC`: the GI50 was 46.6 µM (inactive) with U-251; > 100 µM (inactive) in the assay on NCI-H226; 73.3 µM (inactive) with NCI-H460; 19.3 µM (inactive) in the assay on SW-620; > 100 µM (inactive) in the assay on LXFL 529; 62.5 µM (inactive) in the assay with RXF 393. The GI50 with HT-29, with OVCAR-5, with COLO 205, with HCC 2998, with 786-0 and in the assay on SNB-19 was > 100 µM (inactive) throughout. For the same compound, the GI50 with HOP-92, with TK-10 and in the assay on OVCAR-8 was > 100 µM (inactive) each time.

Turning to `c1ccc(/N=C2\c3ccccc3C3=NCCCN32)cc1`, the GI50 was > 100 µM (inactive) with U-251; 27.2 µM (inactive) in the assay with NCI-H226; 55.1 µM (inactive) with NCI-H460; 43.9 µM (inactive) with SW-620; 43.3 µM (inactive) with LXFL 529; 34.7 µM (inactive) in the assay on RXF 393. For the same compound, the GI50 with HT-29 was 31.1 µM (inactive); with OVCAR-5, > 100 µM (inactive); with COLO 205, 62.1 µM (inactive); in the assay on HCC 2998, 49.7 µM (inactive); in the assay with 786-0 it was 90.4 µM (inactive); in the assay with SNB-19, 85.9 µM (inactive). The GI50 in the assay on HOP-92 was 13.8 µM (inactive); in the assay on TK-10, 50 µM (inactive); in the assay on OVCAR-8 it was > 100 µM (inactive).

In the case of `CC(C)=CCC/C(C)=C/CC/C(C)=C/CC/C=C(\C)CC/C=C(\C)CCC1SC1(C)C` (stereo not given), the GI50 with U-251 is > 100 µM (inactive); in the assay with NCI-H226 it was > 100 µM (inactive); with NCI-H460, > 100 µM (inactive); in the assay on SW-620, 52.5 µM (inactive); with LXFL 529 it was > 100 µM (inactive); with RXF 393, > 100 µM (inactive). Moreover, the GI50 with HT-29, in the assay on OVCAR-5, with COLO 205, in the assay with HCC 2998, in the assay on 786-0 and in the assay with SNB-19 was > 100 µM (inactive) each time. Also, the GI50 in the assay on HOP-92 is 64 µM (inactive); in the assay with TK-10, > 100 µM (inactive); with OVCAR-8 it was > 100 µM (inactive).

Turning to `CCSC1(SCC)CC(Cc2ccc(OC)cc2)N(/C=N/C(C)(C)C)C1` (stereo not given), the GI50 in the assay on U-251 is 19.1 µM (inactive); with NCI-H226 it was 27.6 µM (inactive); with NCI-H460, 8.51 µM (inactive); in the assay with SW-620, 15.1 µM (inactive); in the assay with LXFL 529 it was 25.3 µM (inactive); in the assay with RXF 393, 11.5 µM (inactive). Also, the GI50 with HT-29 was 10.7 µM (inactive); with OVCAR-5, 11.5 µM (inactive); in the assay with COLO 205, 21 µM (inactive); with HCC 2998 it was 17 µM (inactive); in the assay on 786-0 it was 32.1 µM (inactive); in the assay on SNB-19, 38.7 µM (inactive). Moreover, the GI50 in the assay with HOP-92 is 0.321 µM (active); in the assay on TK-10, 17.3 µM (inactive); in the assay on OVCAR-8, 28.2 µM (inactive).

`COCCCCCC(=O)CP(=O)(OC)OC`: the GI50 in the assay on U-251, in the assay on NCI-H226, with NCI-H460, in the assay on SW-620, in the assay with LXFL 529 and in the assay with RXF 393 was > 100 µM (inactive) in each case. Moreover, the GI50 in the assay with HT-29, in the assay on OVCAR-5, in the assay with COLO 205, with HCC 2998, in the assay with 786-0 and with SNB-19 was > 100 µM (inactive) throughout. Also, the GI50 with HOP-92, with TK-10 and in the assay with OVCAR-8 was > 100 µM (inactive) in each case.
